US11698366B2, “Human tissue stem cell and use thereof” (KEIO UNIVERSITY, priority 2017, dated 2023)

Legend:
[1] = tested on: cancer cell; assay: LGR5-iCT/CMV-GFP organoid screening, GFP fluorescence; assay type: cell-based, human; conditions: final concentration shown in FIG. 8; DMSO control
Description: A CMV-GFP construct was further introduced into the LGR5-iCT organoid prepared in Experimental Example 4. In the CMV-GFP construct, a GFP gene was linked downstream of the CMV promoter, which is the forced expression promoter. Therefore, regardless of whether or not the LGR5 gene was expressed, the GFP gene was expressed in all cells and emitted fluorescence of the GFP protein. Hereinafter, these organoids may be referred to as “LGR5-iCT/CMV-GFP organoids” in some cases.
In the LGR5-iCT/CMV-GFP organoid, survival activity of the cancer cell can be observed by fluorescence of GFP, and survival activity of the cancer stem cell can be observed by fluorescence of tdTomato.
Using the LGR5-iCT/CMV-GFP organoid, high-throughput screening of existing anticancer drugs used for the treatment of colon cancer was performed, and the effects on the cancer cells and the cancer stem cells were examined.
FIG. 8 is a micrograph of an organoid showing a typical result. In FIG. 8, “BRIGHT FIELD” indicates a bright field observation image. “CMV-GFP” indicates a fluorescence micrograph obtained by observing GFP fluorescence”. “LGR5-tdTomato” indicates a fluorescence micrograph obtained by observing tdTomato fluorescence. “Merge” indicates the result obtained by synthesizing the bright-field observation image, the GFP fluorescence micrograph, and the micrograph of tdTomato fluorescence. […]

[2] = tested on: cancer stem cell; assay: LGR5-iCT/CMV-GFP organoid screening, tdTomato fluorescence; assay type: cell-based, human; conditions: final concentration shown in FIG. 8; DMSO control
Description: In addition, Irinotecan, Cetuximab, and Oxaliplatin are existing anticancer drugs. In addition, “DMSO” refers to dimethyl sulfoxide added to the medium instead of the anticancer drug as a control.

[3] = tested on: tumor derived from LGR5-iCT organoid; assay: Tumor size of LGR5-iCT organoid xenograft measured regularly; assay type: in vivo, NOG mice
Protocol: The LGR5-iCT organoid was xenografted under the renal capsule of NOG mice (7-12 weeks old, male) by the same method as Experimental Example 2. Subsequently, after a tumor was formed, the AP20187 was administered to mice daily for 5 days. In addition, control mice to which only a solvent was administered daily for 5 days. Thereafter, a tumor size of each mouse was measured regularly.
In addition, FIG. 6 is a graph showing a result obtained by measuring the size of a tumor of each of a mouse (Dimerizer) to which the AP20187 is administered and the control mouse (Vehicle), regularly. As a result, it was confirmed that the tumor size was reduced by the administration of the AP20187.
In addition, the inventors examined the expression of the LGR5 gene in the tumor tissue after the administration of the AP20187. […] In addition, it was also clear that a re-increase of the tumor size corresponds to re-expression of the LGR5 gene.

[4] = tested on: LGR5-positive cancer stem cell; assay: Tumor tissue sections of LGR5-iCT organoid xenograft (tdTomato fluorescence, KRT20 immunostaining); assay type: in vivo, NOG mice; conditions: tumor section on the 5th day from start of administration, daily for 5 days
Description: First, an IRES-iCaspase9-T2A-tdTomato construct was introduced into the LGR5 gene locus of the cultured organoid derived from colon cancer by the same method as in Experimental Example 1. Hereinafter, these organoids may be referred to as “LGR5-iCT organoids” in some cases.
iCaspase 9 is a drug-induced suicide gene. The iCaspase 9 has no activity in a monomer, but forms a dimer in the presence of AP20187 (dimerizer, APExBIO) to induce apoptosis. Also, TdTomato is a kind of red fluorescent protein (RFP).
FIG. 4 is a diagram illustrating a structure of the completed LGR5 gene locus and behavior of the drug-induced suicide gene. […] Therefore, it is possible to confirm the presence of the LGR5-positive cell by observing the fluorescence of the tdTomato. […] As a result, the fluorescence of the tdTomato becomes not observed.
The LGR5-iCT organoid was xenografted under the renal capsule of NOG mice (7-12 weeks old, male) by the same method as Experimental Example 2. […] Thereafter, a tumor size of each mouse was measured regularly.
FIGS. 5 (a) and 5(b) show fluorescence micrographs of a result obtained by extracting a tumor of each mouse on the 5th day from the start of administration of the AP20187 to prepare a tissue section and detecting the fluorescence of the tdTomato and KRT20 as a differentiation marker by immunostaining. […]

SMILES: O=C1[O][Pt]2([NH][C@@H]3CCCC[C@H]3[NH]2)[O]C1=O [oxaliplatin]
- effect against the cancer cell (GFP fluorescence) [1]: kills
- effect against the cancer stem cell (tdTomato fluorescence) [2]: kills

SMILES: CC[C@H](C(=O)N1CCCC[C@H]1C(=O)O[C@H](CCc1ccc(OC)c(OC)c1)c1cccc(OCC(=O)NCC(CNC(=O)COc2cccc([C@@H](CCc3ccc(OC)c(OC)c3)OC(=O)[C@@H]3CCCCN3C(=O)[C@@H](CC)c3cc(OC)c(OC)c(OC)c3)c2)CN(C)C)c1)c1cc(OC)c(OC)c(OC)c1 [AP20187]
- tumor size ([3]; after administration daily for 5 days): reduced
- tumor growth ([3]; continuous cancer stem cell treatment, tumor not completely cured): could suppress tumor growth
- expression of the LGR5 gene in the tumor tissue after administration ([3]; expression once disappeared, corresponds to re-increase of tumor size): recognized again
- tumor size, eventually ([3]; later after the end of the 5-day administration): increased again
- effect on LGR5-negative cell [4]: remained intact
- effect on LGR5-positive cancer stem cell (apoptosis) [4]: completely died

SMILES: CCc1c2c(nc3ccc(OC(=O)N4CCC(N5CCCCC5)CC4)cc13)-c1cc3c(c(=O)n1C2)COC(=O)[C@]3(O)CC [irinotecan]
- effect against the cancer cell (GFP fluorescence) [1]: showed a growth suppression effect
- effect against the cancer stem cell (tdTomato fluorescence) [2]: not effective
